# Measurements reported in PubChem BioAssay AID220 (DTP/NCI, 2004).
# Several values for one entry are separate records, joined by “and”; a condition that tells them apart may be missing. Equal entries are not always repeated. Results filed as inconclusive are left out.
# Tested on: CD8F1 mice, subcutaneous mammary adenocarcinoma, T/C%
# Experiment: NCI In Vivo Anticancer Drug Screen. Data for tumor model Mammary Adenocarcinoma CD8F1 (subcutaneous) in CD8F1
# Conditions: higher = larger tumour
# In short: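 Mice carrying transplanted tumors received test compound, and survival or tumor size was recorded. Each value is the treated-group measurement divided by the corresponding measurement in vehicle-dosed controls.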
# [1] = endpoint: median tumor weight (est.), dose: 100.0 mg/kg/injection, schedule: Q07DX005 (ip), vehicle: saline
# [2] = endpoint: median tumor weight (est.), dose: 200.0 mg/kg/injection, schedule: Q07DX005 (ip), vehicle: saline
# [3] = endpoint: median tumor weight (est.), dose: 400.0 mg/kg/injection, schedule: Q07DX005 (ip), vehicle: saline
# [4] = endpoint: median tumor weight change, dose: 8.0 mg/kg/injection, schedule: Q01DX001 (ip), vehicle: Klucel (hydroxypropylcellulose) (HPC)
# [5] = endpoint: median tumor weight change, dose: 15.62 mg/kg/injection, schedule: Q01DX001 (ip), vehicle: Klucel (hydroxypropylcellulose) (HPC)
# [6] = endpoint: median tumor weight change, dose: 16.0 mg/kg/injection, schedule: Q01DX001 (ip), vehicle: Klucel (hydroxypropylcellulose) (HPC)
# [7] = endpoint: median tumor weight change, dose: 31.0 mg/kg/injection, schedule: Q01DX001 (ip), vehicle: Klucel (hydroxypropylcellulose) (HPC)
# [8] = endpoint: median tumor weight change, dose: 62.0 mg/kg/injection, schedule: Q01DX001 (ip), vehicle: Klucel (hydroxypropylcellulose) (HPC)
# [9] = endpoint: median tumor weight change, dose: 62.5 mg/kg/injection, schedule: Q01DX001 (ip), vehicle: Klucel (hydroxypropylcellulose) (HPC)
# [10] = endpoint: median tumor weight change, dose: 125.0 mg/kg/injection, schedule: Q01DX001 (ip), vehicle: Klucel (hydroxypropylcellulose) (HPC)
# [11] = endpoint: median tumor weight (est.), dose: 25.0 mg/kg/injection, schedule: Q07DX005 (ip), vehicle: Klucel (hydroxypropylcellulose) (HPC)
# [12] = endpoint: median tumor weight (est.), dose: 50.0 mg/kg/injection, schedule: Q07DX005 (ip), vehicle: Klucel (hydroxypropylcellulose) (HPC)
# [13] = endpoint: median tumor weight (est.), dose: 100.0 mg/kg/injection, schedule: Q07DX005 (ip), vehicle: Klucel (hydroxypropylcellulose) (HPC)
# [14] = endpoint: median tumor weight (est.), dose: 200.0 mg/kg/injection, schedule: Q07DX005 (ip), vehicle: Klucel (hydroxypropylcellulose) (HPC)
# [15] = endpoint: median tumor weight (est.), dose: 25.0 mg/kg/injection, schedule: Q07DX005 (ip), vehicle: saline
# [16] = endpoint: median tumor weight (est.), dose: 25.0 mg/kg/injection, schedule: Q07DX005 (ip), vehicle: suspension in saline
# [17] = endpoint: median tumor weight (est.), dose: 12.5 mg/kg/injection, schedule: Q07DX005 (ip), vehicle: saline
# [18] = endpoint: median tumor weight (est.), dose: 50.0 mg/kg/injection, schedule: Q07DX005 (ip), vehicle: saline
smiles,measurement,setting,value
O=c1cc[nH]c(=O)o1,T/C,"endpoint: mean tumor weight, dose: 5.0 mg/kg/injection, schedule: Q04DX008 (ip), vehicle: water",75 % of control
same,T/C,"endpoint: mean tumor weight, dose: 10.0 mg/kg/injection, schedule: Q04DX008 (ip), vehicle: water",109 % of control
same,T/C,"endpoint: mean tumor weight, dose: 20.0 mg/kg/injection, schedule: Q04DX008 (ip), vehicle: water",70 % of control
same,T/C,"endpoint: mean tumor weight, dose: 25.0 mg/kg/injection, schedule: Q07DX005 (ip), vehicle: saline",112 % of control
same,T/C,"endpoint: mean tumor weight, dose: 25.0 mg/kg/injection, schedule: Q07DX007 (ip), vehicle: saline",152 % of control
same,T/C,"endpoint: mean tumor weight, dose: 50.0 mg/kg/injection, schedule: Q07DX005 (ip), vehicle: saline",54 % of control
same,T/C,"endpoint: mean tumor weight, dose: 50.0 mg/kg/injection, schedule: Q07DX007 (ip), vehicle: saline",87 % of control
same,T/C,"endpoint: mean tumor weight, dose: 75.0 mg/kg/injection, schedule: Q07DX007 (ip), vehicle: saline",46 % of control
same,T/C,"endpoint: median tumor weight (est.), dose: 12.2 mg/kg/injection, schedule: Q07DX005 (ip), vehicle: saline",62 % of control
same,T/C,"endpoint: median tumor weight (est.), dose: 28.0 mg/kg/injection, schedule: Q07DX005 (ip), vehicle: saline",83 % of control
same,T/C,"endpoint: median tumor weight (est.), dose: 42.0 mg/kg/injection, schedule: Q07DX005 (ip), vehicle: saline",118 % of control
same,T/C,"endpoint: median tumor weight (est.), dose: 63.0 mg/kg/injection, schedule: Q07DX005 (ip), vehicle: saline",67 % of control
O=C1OC(C(O)CO)C(O)=C1O (stereo not drawn),T/C,[1],70 % of control
same,T/C,[2],28 % of control
same,T/C,[3],110 % of control
same,T/C,"endpoint: median tumor weight (est.), dose: 800.0 mg/kg/injection, schedule: Q07DX005 (ip), vehicle: saline",61 % of control
C/C(=N\N=C(/[Se])N1CC2CCC(CC2)C1)c1ccccn1,T/C,[4],86 % of control
same,T/C,[5],114 % of control
same,T/C,"endpoint: median tumor weight change, dose: 15.62 mg/kg/injection, schedule: Q01DX001 (ip), vehicle: saline with Tween-80",109 % of control
same,T/C,[6],27 % of control
same,T/C,[7],55 % of control
same,T/C,"endpoint: median tumor weight change, dose: 31.25 mg/kg/injection, schedule: Q01DX001 (ip), vehicle: saline with Tween-80",87 % of control
same,T/C,[8],18 % of control
same,T/C,[9],122 % of control
same,T/C,"endpoint: median tumor weight change, dose: 62.5 mg/kg/injection, schedule: Q01DX001 (ip), vehicle: saline with Tween-80",65 % of control
same,T/C,[10],111 % of control
same,T/C,"endpoint: median tumor weight change, dose: 125.0 mg/kg/injection, schedule: Q01DX001 (ip), vehicle: saline with Tween-80",59 % of control
O=NN(CCCl)C(=O)NC1CCC(=O)NC1=O (stereo not drawn),T/C,"endpoint: median tumor weight (est.), dose: 4.0 mg/kg/injection, schedule: Q07DX005 (ip), vehicle: saline with Tween-80",49 % of control
same,T/C,"endpoint: median tumor weight (est.), dose: 8.0 mg/kg/injection, schedule: Q07DX005 (ip), vehicle: saline with Tween-80",24 % of control
same,T/C,"endpoint: median tumor weight (est.), dose: 13.0 mg/kg/injection, schedule: Q07DX005 (ip), vehicle: saline with Tween-80",12 % of control
same,T/C,"endpoint: median tumor weight (est.), dose: 20.0 mg/kg/injection, schedule: Q07DX005 (ip), vehicle: saline with Tween-80",6 % of control
CCOC(=O)c1ccc(NC(=O)Nc2nncs2)cc1,T/C,"endpoint: median tumor weight (est.), dose: 12.5 mg/kg/injection, schedule: Q07DX005 (ip), vehicle: distilled water + Tween-80",239 % of control
same,T/C,"endpoint: median tumor weight (est.), dose: 25.0 mg/kg/injection, schedule: Q07DX005 (ip), vehicle: distilled water + Tween-80",259 % of control
same,T/C,"endpoint: median tumor weight (est.), dose: 50.0 mg/kg/injection, schedule: Q07DX005 (ip), vehicle: distilled water + Tween-80",69 % of control
same,T/C,"endpoint: median tumor weight (est.), dose: 400.0 mg/kg/injection, schedule: Q07DX005 (ip), vehicle: distilled water + Tween-80",156 % of control
CC1C=NNC1=O (stereo not drawn),T/C,[11],20 % of control
same,T/C,[12],187 % of control
same,T/C,[13],234 % of control
same,T/C,[14],182 % of control
same,T/C,"endpoint: median tumor weight (est.), dose: 400.0 mg/kg/injection, schedule: Q07DX005 (ip), vehicle: Klucel (hydroxypropylcellulose) (HPC)",23 % of control
O=CC=O,T/C,[11],92 % of control and 100 % of control
c1cc(-c2cc3ccc(C4=NCCN4)cc3[nH]2)ccc1C1=NCCN1,T/C,"endpoint: median tumor weight (est.), dose: 6.25 mg/kg/injection, schedule: Q07DX005 (ip), vehicle: suspension in saline",103 % of control
same,T/C,"endpoint: median tumor weight (est.), dose: 12.5 mg/kg/injection, schedule: Q07DX005 (ip), vehicle: suspension in saline",60 % of control
same,T/C,[15],45 % of control
same,T/C,[16],164 % of control
same,T/C,"endpoint: median tumor weight change, dose: 62.0 mg/kg/injection, schedule: Q01DX001 (ip), vehicle: suspension in saline",99 % of control
CC1(CO)C(O)CCC2(C)C1CCC1CC3CC12CCC3(O)CO (stereo not drawn),T/C,"endpoint: median tumor weight (est.), dose: 12.5 mg/kg/injection, schedule: Q07DX005 (ip), vehicle: saline with Tween-80",39 % of control
same,T/C,"endpoint: median tumor weight (est.), dose: 18.75 mg/kg/injection, schedule: Q07DX005 (ip), vehicle: saline with Tween-80",53 % of control
same,T/C,"endpoint: median tumor weight (est.), dose: 25.0 mg/kg/injection, schedule: Q07DX005 (ip), vehicle: saline with Tween-80",55 % of control
same,T/C,"endpoint: median tumor weight (est.), dose: 37.5 mg/kg/injection, schedule: Q07DX005 (ip), vehicle: saline with Tween-80",85 % of control
same,T/C,"endpoint: median tumor weight (est.), dose: 50.0 mg/kg/injection, schedule: Q07DX005 (ip), vehicle: saline with Tween-80",60 % of control
same,T/C,"endpoint: median tumor weight (est.), dose: 100.0 mg/kg/injection, schedule: Q07DX005 (ip), vehicle: saline with Tween-80",58 % of control
same,T/C,"endpoint: median tumor weight (est.), dose: 200.0 mg/kg/injection, schedule: Q07DX005 (ip), vehicle: saline with Tween-80",92 % of control
same,T/C,"endpoint: median tumor weight (est.), dose: 400.0 mg/kg/injection, schedule: Q07DX005 (ip), vehicle: saline with Tween-80",13 % of control
COc1cccc2c1C(=O)c1c(O)c3c(c(O)c1C2=O)C[C@@](O)(C(O)CO)C[C@@H]3OC1CC(N)C(O)C(C)O1 (stereo partly drawn),T/C,"endpoint: mean tumor weight, dose: 6.0 mg/kg/injection, schedule: Q07DX006 (ip), vehicle: saline",33 % of control
same,T/C,"endpoint: mean tumor weight, dose: 12.0 mg/kg/injection, schedule: Q07DX006 (ip), vehicle: saline",45 % of control
same,T/C,"endpoint: median tumor weight (est.), dose: 3.0 mg/kg/injection, schedule: Q07DX005 (ip), vehicle: saline",77 % of control
same,T/C,"endpoint: median tumor weight (est.), dose: 6.0 mg/kg/injection, schedule: Q07DX005 (ip), vehicle: saline",48 % of control
same,T/C,"endpoint: median tumor weight (est.), dose: 12.0 mg/kg/injection, schedule: Q07DX005 (ip), vehicle: saline",26 % of control
COC1C(/C=C/C(C)=O)OC2OC(C)(C)OC21 (stereo not drawn),T/C,"endpoint: median tumor weight (est.), dose: 12.5 mg/kg/injection, schedule: Q07DX005 (ip), vehicle: Klucel (hydroxypropylcellulose) (HPC)",165 % of control
same,T/C,[17],76 % of control
same,T/C,[11],99 % of control
same,T/C,[15],83 % of control
same,T/C,[12],91 % of control
same,T/C,[18],38 % of control
same,T/C,[13],96 % of control
same,T/C,[1],101 % of control
same,T/C,[14],71 % of control
same,T/C,[2],101 % of control
same,T/C,[3],84 % of control
COc1ccc2ccccc2c1C1NC(=O)c2ccccc2N1 (stereo not drawn),T/C,[10],88 % of control
same,T/C,"endpoint: median tumor weight change, dose: 250.0 mg/kg/injection, schedule: Q01DX001 (ip), vehicle: Klucel (hydroxypropylcellulose) (HPC)",118 % of control
same,T/C,"endpoint: median tumor weight change, dose: 500.0 mg/kg/injection, schedule: Q01DX001 (ip), vehicle: Klucel (hydroxypropylcellulose) (HPC)",97 % of control
same,T/C,"endpoint: median tumor weight change, dose: 1000.0 mg/kg/injection, schedule: Q01DX001 (ip), vehicle: Klucel (hydroxypropylcellulose) (HPC)",60 % of control
COc1c(C=O)c2c(c(OC)c1OC)-c1ccc(OC)c(=O)cc1[C@@H](NC(C)=O)CC2,T/C,[4],76 % of control
same,T/C,[5],93 % of control
same,T/C,[6],88 % of control
same,T/C,[7],54 % of control
same,T/C,"endpoint: median tumor weight change, dose: 31.25 mg/kg/injection, schedule: Q01DX001 (ip), vehicle: Klucel (hydroxypropylcellulose) (HPC)",69 % of control
same,T/C,[8],17 % of control
same,T/C,[9],7 % of control
CCN(CC)CCCC(C)Nc1c2ccc(Cl)cc2nc2ccc(OC)cc12 (stereo not drawn),T/C,[17],88 % of control
same,T/C,[15],65 % of control
same,T/C,[16],60 % of control
same,T/C,[18],90 % of control
same,T/C,"endpoint: median tumor weight (est.), dose: 50.0 mg/kg/injection, schedule: Q07DX005 (ip), vehicle: suspension in saline",94 % of control
same,T/C,[1],74 % of control
same,T/C,"endpoint: median tumor weight (est.), dose: 100.0 mg/kg/injection, schedule: Q07DX005 (ip), vehicle: suspension in saline",50 % of control
